Experimental data from paper PMC6979384, “Characterization of the plant homeodomain (PHD) reader family for their histone tail interactions” (Epigenetics & Chromatin, 2020).

How the values were obtained:
Test in all cases: Histone peptide microarray
Format in all cases: binding, human
Details in all cases: histone peptide array, GST-tagged reader
AIRE (PP) = test system: AIRE (PP)
How it was run: (§1)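 GST-tagged PHD readers, 0.5 μM, probed on a microarray of 293 synthetic histone peptides carrying single or combinatorial PTMs (optimized Petell protocol). Signals are averaged over 4 replicates and expressed as relative binding.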

BAZ2B = test system: BAZ2B
How it was run: as §1

BPTF (PB) = test system: BPTF (PB)
How it was run: as §1

CHD4 (PPCC) = test system: CHD4 (PPCC)
How it was run: as §1

CHD5 (PCC) = test system: CHD5 (PCC)
How it was run: as §1

CHD5 (PPCC) = test system: CHD5 (PPCC)
How it was run: as §1

DIDO1 = test system: DIDO1
How it was run: as §1

DPF2 (PPC2W2) = test system: DPF2 (PPC2W2)
How it was run: as §1

ING1 = test system: ING1
How it was run: as §1

ING2 = test system: ING2
How it was run: as §1

ING3 = test system: ING3
How it was run: as §1

ING4 = test system: ING4
How it was run: as §1

ING5 = test system: ING5
How it was run: as §1

KDM4C (TTP) = test system: KDM4C (TTP)
How it was run: as §1

KDM5A (1) = test system: KDM5A (1)
How it was run: as §1

KDM5A (3) = test system: KDM5A (3)
How it was run: as §1

KDM5B (1) = test system: KDM5B (1)
How it was run: as §1

KDM5B (3) = test system: KDM5B (3)
How it was run: as §1

KDM7A = test system: KDM7A
How it was run: as §1

MLL5 = test system: MLL5
How it was run: as §1

MORC3 (CW) = test system: MORC3 (CW)
How it was run: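 Each reader, produced as a GST fusion and purified, was tested at 0.5 μM on synthetic histone peptides (293 in total) carrying single or combinatorial marks. Intensities averaged over four replicates.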

PHF13 = test system: PHF13
How it was run: as §1

PHF21A = test system: PHF21A
How it was run: as §1

PHF23 = test system: PHF23
How it was run: as §1

PHF2 = test system: PHF2
How it was run: as §1

PHF8 = test system: PHF8
How it was run: as §1

PHRF1 (RP) = test system: PHRF1 (RP)
How it was run: as §1

RAG2 = test system: RAG2
How it was run: as §1

SP140L = test system: SP140L
How it was run: as §1

TAF3 = test system: TAF3
How it was run: as §1

TRIM66 (PB) = test system: TRIM66 (PB)
How it was run: as §1

[1] = PB = PHD + Bromodomain, arrays performed twice, n of 4
[2] = PPCC = Dual PHD + Dual Chromodomain, arrays performed twice, n of 4
[3] = sheet "Array Heatmap", total n = 4

Substance: H3.3 (27-45): H3.3 27-45 (KSAPSTGGVKKPHRYRPGT; UniProt P84243 28-46, looked up, fragment)
- Array Heatmap signal, AIRE (PP) (AIRE (PP); arrays performed twice, n of 4): 0.4994
- Array Heatmap signal, BAZ2B (BAZ2B; arrays performed twice, n of 4): 0.4692
- Array Heatmap signal, BPTF (PB) (BPTF (PB); [1]): 0.34
- Array Heatmap signal, CHD4 (PPCC) (CHD4 (PPCC); [2]): 0.5867
- Array Heatmap signal, CHD5 (PCC) (CHD5 (PCC); PCC = PHD + Dual Chromodomain, arrays performed twice, n of 4): 0.7947
- Array Heatmap signal, CHD5 (PPCC) (CHD5 (PPCC); [2]): 0.5478
- Array Heatmap signal, DIDO1 (DIDO1; arrays performed twice, n of 4): 0.7133
- Array Heatmap signal, DPF2 (PPC2W2) (DPF2 (PPC2W2); PPC2W2 = Dual PHD + C2W2-type Zn-finger, arrays performed twice, n of 4): 0.6084
- Array Heatmap signal, ING1 (ING1; arrays performed twice, n of 4): 0.4846
- Array Heatmap signal, ING2 (ING2; arrays performed twice, n of 4): 0.588
- Array Heatmap signal, ING3 (ING3; arrays performed twice, n of 4): 0.4546
- Array Heatmap signal, ING4 (ING4; arrays performed twice, n of 4): 0.4566
- Array Heatmap signal, ING5 (ING5; arrays performed twice, n of 4): 0.3478
- Array Heatmap signal, KDM4C (TTP) (KDM4C (TTP); TTP = Tandem Tudor domain + PHD, arrays performed twice, n of 4): 0.5199
- Array Heatmap signal, KDM5A (1) (KDM5A (1); arrays performed twice, n of 4): 0.4676
- Array Heatmap signal, KDM5A (3) (KDM5A (3); arrays performed twice, n of 4): 0.405
- Array Heatmap signal, KDM5B (1) (KDM5B (1); arrays performed twice, n of 4): 0.6276
- Array Heatmap signal, KDM5B (3) (KDM5B (3); arrays performed twice, n of 4): 0.4762
- Array Heatmap signal, KDM7A (KDM7A; arrays performed twice, n of 4): 0.4316
- Array Heatmap signal, MLL5 (MLL5; arrays performed twice, n of 4): 0.5451
- Array Heatmap signal, MORC3 (CW) (MORC3 (CW); CW = CW-type Zn-finger, arrays performed twice, n of 4): 0.3459
- Array Heatmap signal, PHF13 (PHF13; arrays performed twice, n of 4): 0.5824
- Array Heatmap signal, PHF21A (PHF21A; arrays performed twice, n of 4): 0.4761
- Array Heatmap signal, PHF23 (PHF23; arrays performed twice, n of 4): 0.5188
- Array Heatmap signal, PHF2 (PHF2; arrays performed twice, n of 4): 0.4329
- Array Heatmap signal, PHF8 (PHF8; arrays performed twice, n of 4): 0.3699
- Array Heatmap signal, PHRF1 (RP) (PHRF1 (RP); arrays performed twice, n of 4): 0.4032
- Array Heatmap signal, RAG2 (RAG2; arrays performed twice, n of 4): 0.2569
- Array Heatmap signal, SP140L (SP140L; arrays performed twice, n of 4): 0.3705
- Array Heatmap signal, TAF3 (TAF3; arrays performed twice, n of 4): 0.2584
- Array Heatmap signal, TRIM66 (PB) (TRIM66 (PB); [1]): 0.5678

Substance: H3.3K18ac + K23ac + K27ac + S28p: H3.3 15-34
- Array Heatmap signal, AIRE (PP) (AIRE (PP); [3]): 0.4033
- Array Heatmap signal, BAZ2B (BAZ2B; [3]): 0.4455
- Array Heatmap signal, BPTF (PB) (BPTF (PB); [3]): 0.3427
- Array Heatmap signal, CHD4 (PPCC) (CHD4 (PPCC); [3]): 0.5345
- Array Heatmap signal, CHD5 (PCC) (CHD5 (PCC); [3]): 0.7419
- Array Heatmap signal, CHD5 (PPCC) (CHD5 (PPCC); [3]): 0.5304
- Array Heatmap signal, DIDO1 (DIDO1; [3]): 0.747
- Array Heatmap signal, DPF2 (PPC2W2) (DPF2 (PPC2W2); [3]): 0.6362
- Array Heatmap signal, ING1 (ING1; [3]): 0.5496
- Array Heatmap signal, ING2 (ING2; [3]): 0.6018
- Array Heatmap signal, ING3 (ING3; [3]): 0.4727
- Array Heatmap signal, ING4 (ING4; [3]): 0.4374
- Array Heatmap signal, ING5 (ING5; [3]): 0.3405
- Array Heatmap signal, KDM4C (TTP) (KDM4C (TTP); [3]): 0.4483
- Array Heatmap signal, KDM5A (1) (KDM5A (1); [3]): 0.4461
- Array Heatmap signal, KDM5A (3) (KDM5A (3); [3]): 0.436
- Array Heatmap signal, KDM5B (1) (KDM5B (1); [3]): 0.64
- Array Heatmap signal, KDM5B (3) (KDM5B (3); [3]): 0.4567
- Array Heatmap signal, KDM7A (KDM7A; [3]): 0.3117
- Array Heatmap signal, MLL5 (MLL5; [3]): 0.5576
- Array Heatmap signal, MORC3 (CW) (MORC3 (CW); [3]): 0.3503
- Array Heatmap signal, PHF13 (PHF13; [3]): 0.5819
- Array Heatmap signal, PHF21A (PHF21A; [3]): 0.4374
- Array Heatmap signal, PHF23 (PHF23; [3]): 0.5591
- Array Heatmap signal, PHF2 (PHF2; [3]): 0.5396
- Array Heatmap signal, PHF8 (PHF8; [3]): 0.3574
- Array Heatmap signal, PHRF1 (RP) (PHRF1 (RP); [3]): 0.4303
- Array Heatmap signal, RAG2 (RAG2; [3]): 0.2492
- Array Heatmap signal, SP140L (SP140L; [3]): 0.326
- Array Heatmap signal, TAF3 (TAF3; [3]): 0.2571
- Array Heatmap signal, TRIM66 (PB) (TRIM66 (PB); [3]): 0.5994

Substance: H3.3K18ac + K23ac + K27ac: H3.3 15-34
- Array Heatmap signal, AIRE (PP) (AIRE (PP); [3]): 0.3882
- Array Heatmap signal, BAZ2B (BAZ2B; [3]): 0.3976
- Array Heatmap signal, BPTF (PB) (BPTF (PB); [3]): 0.2983
- Array Heatmap signal, CHD4 (PPCC) (CHD4 (PPCC); [3]): 0.4939
- Array Heatmap signal, CHD5 (PCC) (CHD5 (PCC); [3]): 0.7415
- Array Heatmap signal, CHD5 (PPCC) (CHD5 (PPCC); [3]): 0.4663
- Array Heatmap signal, DIDO1 (DIDO1; [3]): 0.6174
- Array Heatmap signal, DPF2 (PPC2W2) (DPF2 (PPC2W2); [3]): 0.5923
- Array Heatmap signal, ING1 (ING1; [3]): 0.4856
- Array Heatmap signal, ING2 (ING2; [3]): 0.5898
- Array Heatmap signal, ING3 (ING3; [3]): 0.4284
- Array Heatmap signal, ING4 (ING4; [3]): 0.3863
- Array Heatmap signal, ING5 (ING5; [3]): 0.2999
- Array Heatmap signal, KDM4C (TTP) (KDM4C (TTP); [3]): 0.4047
- Array Heatmap signal, KDM5A (1) (KDM5A (1); [3]): 0.4013
- Array Heatmap signal, KDM5A (3) (KDM5A (3); [3]): 0.3827
- Array Heatmap signal, KDM5B (1) (KDM5B (1); [3]): 0.6049
- Array Heatmap signal, KDM5B (3) (KDM5B (3); [3]): 0.4033
- Array Heatmap signal, KDM7A (KDM7A; [3]): 0.2948
- Array Heatmap signal, MLL5 (MLL5; [3]): 0.5276
- Array Heatmap signal, MORC3 (CW) (MORC3 (CW); [3]): 0.3178
- Array Heatmap signal, PHF13 (PHF13; [3]): 0.5394
- Array Heatmap signal, PHF21A (PHF21A; [3]): 0.4029
- Array Heatmap signal, PHF23 (PHF23; [3]): 0.5184
- Array Heatmap signal, PHF2 (PHF2; [3]): 0.5078
- Array Heatmap signal, PHF8 (PHF8; [3]): 0.3485
- Array Heatmap signal, PHRF1 (RP) (PHRF1 (RP); [3]): 0.3802
- Array Heatmap signal, RAG2 (RAG2; [3]): 0.2141
- Array Heatmap signal, SP140L (SP140L; [3]): 0.3146
- Array Heatmap signal, TAF3 (TAF3; [3]): 0.2149
- Array Heatmap signal, TRIM66 (PB) (TRIM66 (PB); [3]): 0.509
